Reference: the supplement of paper PMC10307832

Experiments:
Assay in all cases: relative viability (nuclei count vs DMSO), 5 days (fraction); higher = more cells survive
IA-LM = tested on: IA-LM
In short: (§1)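 After 5 days of treatment, lung cancer cells in 1536-well plates were fixed and stained in a single step (final 0.05% Triton X-100, 1% formaldehyde, 1 ug/ml Hoechst) and their nuclei counted on 4× images. Treatment had been applied by pin tool the day after seeding as one drug alone or as a fixed anchor-drug dose with five library-drug doses (not always all listed) in √10 steps. Relative viability is the nuclei count of treated wells divided by that of vehicle wells, and values are medians of duplicate plates.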

ABC-1 = tested on: ABC-1
In short: as §1

NCI-H2126 = tested on: NCI-H2126
In short: as §1

NCI-H1299 = tested on: NCI-H1299
In short: as §1

NCI-H1703 = tested on: NCI-H1703
In short: as §1

EKVX = tested on: EKVX
In short: as §1

NCI-H2085 = tested on: NCI-H2085
In short: as §1

EBC-1 = tested on: EBC-1
In short: as §1

Calu-6 = tested on: Calu-6
In short: as §1

NCI-H1993 = tested on: NCI-H1993
In short: as §1

RERF-LC-KJ = tested on: RERF-LC-KJ
In short: as §1

HCC-44 = tested on: HCC-44
In short: as §1

A549 = tested on: A549
In short: as §1

SMILES: COc1cc2nccc(Oc3ccc(NC(=O)Nc4cc(C)on4)c(Cl)c3)c2cc1OC [Tivozanib] + CS(=O)(=O)CCNCc1ccc(-c2ccc3ncnc(Nc4ccc(OCc5cccc(F)c5)c(Cl)c4)c3c2)o1 [Lapatinib] (partner 2 µM)
- relative viability (IA-LM; first compound 0.01581 µM): 0.564
- relative viability (IA-LM; first compound 0.05 µM): 0.771
- relative viability (IA-LM; first compound 0.1581 µM): 0.582
- relative viability (IA-LM; first compound 0.5 µM): 0.56
- relative viability (ABC-1; first compound 0.005 µM): 1.33
- relative viability (ABC-1; first compound 0.01581 µM): 1.15
- relative viability (ABC-1; first compound 0.05 µM): 1.26
- relative viability (ABC-1; first compound 0.1581 µM): 1.16
- relative viability (ABC-1; first compound 0.5 µM): 1.22
- relative viability (NCI-H2126; first compound 0.005 µM): 0.686
- relative viability (NCI-H2126; first compound 0.01581 µM): 0.784
- relative viability (NCI-H2126; first compound 0.05 µM): 0.755
- relative viability (NCI-H2126; first compound 0.1581 µM): 0.559
- relative viability (NCI-H2126; first compound 0.5 µM): 0.774
- relative viability (NCI-H1299; first compound 0.005 µM): 0.921
- relative viability (NCI-H1299; first compound 0.01581 µM): 1.03
- relative viability (NCI-H1299; first compound 0.05 µM): 0.933
- relative viability (NCI-H1299; first compound 0.1581 µM): 0.936
- relative viability (NCI-H1299; first compound 0.5 µM): 0.917
- relative viability (NCI-H1703; first compound 0.005 µM): 0.44
- relative viability (NCI-H1703; first compound 0.01581 µM): 0.255
- relative viability (NCI-H1703; first compound 0.05 µM): 0.271
- relative viability (NCI-H1703; first compound 0.1581 µM): 0.305
- relative viability (NCI-H1703; first compound 0.5 µM): 0.259
- relative viability (EKVX; first compound 0.005 µM): 0.224
- relative viability (EKVX; first compound 0.01581 µM): 0.199
- relative viability (EKVX; first compound 0.05 µM): 0.216
- relative viability (EKVX; first compound 0.1581 µM): 0.182
- relative viability (EKVX; first compound 0.5 µM): 0.192
- relative viability (NCI-H2085; first compound 0.005 µM): 0.66
- relative viability (NCI-H2085; first compound 0.01581 µM): 0.769
- relative viability (NCI-H2085; first compound 0.05 µM): 0.774
- relative viability (NCI-H2085; first compound 0.1581 µM): 0.579
- relative viability (NCI-H2085; first compound 0.5 µM): 0.627
- relative viability (EBC-1; first compound 0.005 µM): 0.231
- relative viability (EBC-1; first compound 0.01581 µM): 0.216
- relative viability (EBC-1; first compound 0.05 µM): 0.172
- relative viability (EBC-1; first compound 0.1581 µM): 0.209
- relative viability (EBC-1; first compound 0.5 µM): 0.204
- relative viability (Calu-6; first compound 0.005 µM): 1.01
- relative viability (Calu-6; first compound 0.01581 µM): 1.08
- relative viability (Calu-6; first compound 0.05 µM): 1.07
- relative viability (Calu-6; first compound 0.1581 µM): 1.13
- relative viability (Calu-6; first compound 0.5 µM): 1.14
- relative viability (NCI-H1993; first compound 0.005 µM): 0.774
- relative viability (NCI-H1993; first compound 0.01581 µM): 0.775
- relative viability (NCI-H1993; first compound 0.05 µM): 0.758
- relative viability (NCI-H1993; first compound 0.1581 µM): 0.713
- relative viability (NCI-H1993; first compound 0.5 µM): 0.739
- relative viability (RERF-LC-KJ; first compound 0.005 µM): 0.816
- relative viability (RERF-LC-KJ; first compound 0.01581 µM): 0.843
- relative viability (RERF-LC-KJ; first compound 0.05 µM): 0.902
- relative viability (RERF-LC-KJ; first compound 0.1581 µM): 0.819
- relative viability (RERF-LC-KJ; first compound 0.5 µM): 0.834
- relative viability (HCC-44; first compound 0.005 µM): 0.95
- relative viability (HCC-44; first compound 0.01581 µM): 0.991
- relative viability (HCC-44; first compound 0.05 µM): 1.01
- relative viability (HCC-44; first compound 0.1581 µM): 0.991
- relative viability (HCC-44; first compound 0.5 µM): 0.952
- relative viability (A549; first compound 0.005 µM): 1.09
- relative viability (A549; first compound 0.01581 µM): 0.987
- relative viability (A549; first compound 0.05 µM): 0.944
- relative viability (A549; first compound 0.1581 µM): 1.03
- relative viability (A549; first compound 0.5 µM): 0.913
